Measurements from paper PMC10926604, “Discovery of a novel small molecule as CD47/SIRPα and PD-1/PD-L1 dual inhibitor for cancer immunotherapy” (Cell Communication and Signaling : CCS, 2024).
“Also recorded” adds a separate entry of the source.

How the values were obtained:
murine CD47/SIRPα = target: T1, murine CD47/SIRPα (Mus musculus, UniProt P97797); assay: Cell-based blocking assay, murine CD47/SIRPα; details: CHO-K1-mCD47 cells, SIRPα-Fc, flow cytometry; read-out: IC50 for blocking murine CD47/SIRPα interaction
T1 construct: purchased ACRO Biosystems SIA-M5258; host or cells: CHO-K1-mCD47 cells carry the partner (lentiviral transfection)
Experimental: The CHO-K1 cell line with stable expression of CD47 and PD-1 was constructed previously by our group. SMC18 was serially diluted using PBS 7.2 (containing 1% DMSO) and incubated with 100 ng of SIRPα-Fc protein (human: SIA-H5251, mouse: SIA-M5258, ACRO Biosystems) and 50 ng of PD-L1-Fc protein (human: 10,084-H02H, mouse: 50,010-M02H, Sino Biological) on ice for 30 min. The mixture was then added to the corresponding CHO-K1-CD47 or CHO-K1-PD-1 cells and further incubated on ice for 30 min. Afterward, PE-conjugated anti-human IgG (Fc) antibody (A18272, eBioscience) was added. The mean fluorescence intensity (MFI) of the cells was detected using flow cytometry (BD FACSCalibur) and the blocking efficiency was calculated.

MC38 cells = assay: MTT assay, MC38 cells; type: cell-based, mouse; details: 100 µM; 24 h, 48 h, 72 h
Experimental: MC38 and B16-OVA cells were seeded into 96-well plates at a density of 3,000 cells per well, respectively and allowed to adhere overnight. SMC18 was added to the cells and incubated for 24 h, 48 h and 72 h, respectively. Cell viability was measured by adding MTT (3-(4, 5-dimethyl-2-thiazolyl)-2,5-diphenyl-2-H-tetrazolium bromide, 298–93-1, Sigma) solution and incubating for 4 h. The cells were then lysed by shaking with DMSO. The absorbance values at 490 nm were measured using a multi-mode microplate reader (Molecular Devices, SpectraMax iD5).
Fig S3. The Effect of SMC18 on Tumor Cell Proliferation in vitro. MC38 cells (3000 cells/well) and B16-OVA cells (3000 cells/well) were seeded in flat-bottomed 96-well plates and allowed to adhere overnight. Subsequently, the cells were starved for 8 hours in serum-free medium. SMC18 was diluted in complete culture medium and added to the wells, following which the cells were incubated for 24 h, 48 h, and 72 h. After the designated incubation periods, 20 μL of MTT solution was added to each well. Four hours later, the supernatant was aspirated, and 150 μL of DMSO was added to each well to dissolve the MTT formazan product. The plates were then shaken for 10 minutes, and absorbance was measured at 490 nm using a microplate reader.

SIRPα = assay: Tyrosine phosphorylation assay of SIRPα, BMDM/MC38 co-culture; type: cell-based, mouse; details: 50 μM, BMDMs co-cultured with MC38 cells, 30 min, Western blotting
Experimental: Murine bone marrow-derived macrophages were subjected to induction using murine GM-CSF for 7 days. Subsequently, the induced macrophages (2 × 10^6 cells/well) were co-cultured with MC38 cells (1 × 10^7 cells/well). The co-cultures were treated with PBS (negative control), SMC18 (50 μM), or anti-mouse CD47 (clone miap301, 20 μg/mL, positive control) and incubated at 37℃ for 30 min. Following this, cells were washed and lysed. Finally, cell lysates were collected for immunoprecipitation and Western blotting.
In brief, the protein samples were separated by SDS-PAGE using a 4% stacking gel and an 8 ~ 10% main gel and transferred to a polyvinylidene difluoride (PVDF) membrane. The membrane was blocked with 5% milk at room temperature for 1–2 h and then incubated with anti-SIRPα (dilution 1:1000, AB8120, Abcam), anti-PD-1 (dilution 1:200, ab52587, Abcam) or anti-Phosphotyrosine (dilution 1:1000, 05–321, Millipore) dissolved in primary antibody dilution buffer overnight at 4 °C. Then the membrane was washed and incubated with appropriate HRP-coupled goat anti-rabbit IgG (D110058, Sangon Biotech) and HRP-coupled goat anti-mouse IgG (D110087, Sangon Biotech) for 1–2 h at room temperature. Finally, the membranes were exposed using an enhanced chemiluminescence (ECL) detection kit (P1030, Applygen). Results were analyzed by ImageJ software (NIH, Bethesda, MD, United States).

[1] = system: GFP+ B16-OVA cells phagocytosed by BMDMs; assay: Phagocytosis assay, BMDMs with GFP+ B16-OVA cells; type: cell-based, mouse; details: 50 μM, flow cytometry
Experimental: Bone marrow-derived macrophage cells (BMDMs) from C57BL/6N mice were isolated and induced with 20 ng/mL of mouse granulocyte–macrophage colony-stimulating factor (GM-CSF, 315–03, Peprotech) for 7 days, with regular medium changes and cytokine replenishment during cell induction. The cells were then harvested for subsequent experiments. Subsequently, the cells were treated with SMC18 at a concentration of 50 μΜ. The anti-CD47 antibody (clone miap301, 16–0471-81, Invitrogen) was employed as a positive control with 20 µg/mL. Phagocytosis was measured by the co-culture of macrophages with green fluorescent protein (GFP^+) tumor cells (GFP^+ MC38 and GFP^+ B16-OVA cells) at a ratio of 1:4 in serum-free medium at 37 °C for 4 h. The cells were harvested and identified by flow cytometry using anti-F4/80 antibody (BM8, 17–4801-82, eBioscience). The phagocytosis rate was calculated as the percentage F4/80^+GFP^+ cells relative to the total number of total F4/80^+ cells. For confocal microscopy detection, BMDMs were labelled with DiR dye (R-22070, Beyotime) at a final concentration of 200 μM, followed by a 30-min staining period. After washing with PBS three times, the cells were cultured with DMEM medium devoid of serum for 2 h. Subsequently, MC38-EGFP cells were seeded onto BMDMs at a density of 4 × 10^6 cells per well. […]

[2] = system: Jurkat cells co-cultured with CHO-K1-hPD-L1 cells; assay: Co-culture assay, IL-2 secretion of Jurkat cells with CHO-K1-hPD-L1 cells; type: cell-based, human; details: 50 μM, co-culture with CHO-K1-hPD-L1 cells 48 h
Experimental: Jurkat cells were stimulated with 25 ng/mL of […] (PMA, 16,561–29-8, Sigma) and 1 μg/mL of phytohemag-glutinin (PHA, L8902, Sigma) or 1 μg/mL anti-human CD3 (OKT3, BioGems and 0.5 μg/mL anti-human CD28 (CD28.2, BioGems) for 24 h. Subsequently, they were co-cultured with CHO-K1-hPD-L1 cells at a ratio of 4:1 for 48 h. SMC18 (50 μΜ) and OPBP-1 peptide (100 μM) were added as experimental group and positive control group, respectively. Four hours before the end of the co-culture, protein transport inhibitor (555,029, BD Biosciences) was added. Jurkat cells were collected and stained with anti-human CD45 antibody (HI30, eBioscience) for 30 min. The cells were then fixed and stained with anti-human IL-2-APC (MQ1-17H12, eBioscience) for another 30 min. The fluorescence intensity was analyzed by flow cytometry (BD, FACSCelesta).

T1 sequence (P97797 32-373 limits assumed): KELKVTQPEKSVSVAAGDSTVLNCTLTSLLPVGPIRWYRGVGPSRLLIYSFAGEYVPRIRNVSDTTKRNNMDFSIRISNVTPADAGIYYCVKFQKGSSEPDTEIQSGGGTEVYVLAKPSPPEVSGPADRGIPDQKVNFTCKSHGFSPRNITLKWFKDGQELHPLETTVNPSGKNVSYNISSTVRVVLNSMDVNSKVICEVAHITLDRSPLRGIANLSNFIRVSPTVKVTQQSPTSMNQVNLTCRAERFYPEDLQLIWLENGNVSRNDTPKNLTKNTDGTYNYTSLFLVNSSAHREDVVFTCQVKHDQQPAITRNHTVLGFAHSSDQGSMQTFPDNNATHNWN

Compound: Cc1cc(C)cc(NS(=O)(=O)c2ccc3[nH]cc(C(=O)NCCc4ccccc4)c(=O)c3c2)c1 [SMC18]
- IC50 (murine CD47/SIRPα): 58.9 ± 3.2 µM
- toxicity to MC38 cells (MTT) (MC38 cells): non-toxic
- tyrosine phosphorylation levels of SIRPα (SIRPα): significantly suppressed
- phagocytosis of B16-OVA cells by BMDMs [1]: enhances; also recorded: significantly increased
- ability of Jurkat cells to secrete IL-2 [2]: effectively restored
